Source: US11446287B2, “Compounds and methods for EP300 or CBP modulation and indications therefor” (Opna Immuno-Oncology SA, priority 2019, dated 2022)

Each compound was assayed against T1, Recombinant human BRD4 containing dual bromodomains (BRD4-BD12 (1-477)) (Homo sapiens, UniProt O60885) (assay: BRD4 Alphascreen binding assay).
T1 construct: Recombinant human BRD4 containing dual bromodomains (BRD4-BD12 (1-477)); made in house; host or cells: E. coli BL21-CodonPlus (DE3), modified pET vector
Method: BRD4 Alphascreen Binding Assay
Binding of compounds of Formula (I) with BRD4 was assessed using Alphascreen binding assay. The inhibition of the interaction between BRD4 and its acetylated target protein was measured quantitatively using recombinant BRD4 protein, an acetylated Histone 4 peptide, and AlphaScreen™ technology. In absence of inhibition of the BRD4 protein bound to AlphaScreen™ nickel chelate acceptor beads can interact with the acetylated Histone 4 peptide which was immobilized by the AlphaScreen™ Streptavidin coated beads. This interaction brings donor and acceptor beads in proximity. The close proximity allows the singlet oxygen produced by laser excitation of the donor beads to reach the acceptor beads and generate a luminescence signal. BRD4 inhibitors result in a decrease in the proximity signal through an inhibition of the BRD4—acetylated peptide interaction.
Recombinant human BRD4 containing dual bromodomains (BRD4-BD12 (1-477)) was prepared and purified as described in protein expression and purification session. The peptide was human Histone H41-21K5AcK8AcK12AcK16Ac-Biotin (Anaspec CA, USA).
Protocol for BRD4 assay: All components are prepared in buffer composed of 50 mM HEPES pH 7.5, 50 mM NaCl, 0.01% BSA, 0.01% Triton X-100, 2 mM DTT. Test compounds and DMSO vehicle are diluted 1:50 in buffer and a 4 μL volume was transferred to an Alphaplate. 5.5 μL of Bromodomain protein and 5.5 μL of peptide are added to wells containing 4 μL of various concentrations of test compounds of Formula (I) or DMSO vehicle in an Alphaplate (PerkinElmer GA, USA) and incubated for 1 hour at room temperature. 5 μL donor and acceptor bead mixture was then added with final concentrations of 7.5 μg/ml. 30 minutes after bead addition, Alpha signal was read on the Envision spectrometer (λEx 680 nm, λEm 520-620 nm). Final concentrations of bromodomain proteins and peptide are as shown below.
All data were normalized to the mean of 16 high and 16 low control wells on each plate. A four parameter curve fit of the following formula was then applied: Y=A+((B−A)/(1+((C/x)^D))) Where ‘A’ is the minimum, ‘B’ is the maximum, ‘C’ is the IC50 and ‘D’ is the Hill slope. Protein Expression and Purification
Recombinant human BRD4 containing dual bromodomains (BRD4-BD12 (1-477)) was expressed in E. coli cells (in a modified pET vector) with an N-terminal six-His tag and purified using a combination of both IMAC (Ni-affinity) and size exclusion chromatography steps.
Recombinant BRD4 was expressed using the E. coli strain BL21-CodonPlus (DE3) (Agilent Technologies CA, USA). Cells were grown in Terrific Broth (TB) media to an OD600 of 2.0 at 37° C. at which temperature was reduced to 18° C., protein was induced with 0.1 mM isopropyl-β-D-thiogalactopyranoside (“IPTG”) for 12-18 hours and harvested by centrifugation at 8000×g for 20 minutes. Cells were re-suspended in 40 mM Tris-HCl pH 8.0, 0.5 M NaCl, 25 mM Imidazole, 5% glycerol, 1/200 vol. Protease Inhibitor Cocktail Set III (Calbiochem), 5 mM beta-mercaptoethanol (“BME”), 0.5 mg/mL Lysozyme, and 0.5 mg/mL DNaseI, incubated on ice for 30 minutes and lysed with a cell disruptor (MicroFluidics MA, USA). The lysate was clarified by centrifugation at 20,000×g for 2 hours. The protein was captured with Ni-NTA resin (Life Technologies, USA). Contaminating proteins were washed off with 40 mM Tris-HCl pH 8.0, 0.5 M NaCl, 25 mM Imidazole, 5% glycerol, and 5 mM BME. Following 3× wash steps, protein was eluted step wise into wash buffer containing 50, 100, 150, 500 mM Imidazole. The protein was further purified using Gel Filtration column 16/60 Superdex 200 (GE Biosciences NJ, USA) in 10 mM HEPES pH 8.0, 150 mM NaCl, and 5 mM DTT. Glycerol was added to a final concentration of 12% and the protein was aliquoted and flash-frozen in liquid Nitrogen.

Structure (SMILES) | IC50 [µM]
Cc1noc(C)c1-c1cnc2c(-c3cccc(CC(=O)O)c3)c(C(F)(F)F)n([C@@H](C)c3ccccn3)c2c1 [P-0161, (S)-2-(3-(6-(3,5-dimethylisoxazol-4-yl)-1-(1-(pyridin-2-yl)ethyl)-2-(trifluoromethyl)-1H-pyrrolo[3,2-b]pyridin-3-yl)phenyl)acetic acid] | 8 to 1000
COc1cc(C(=O)O)cc(OC)c1-c1cn([C@@H](C)c2ccccn2)c2cc(-c3c(C)noc3C)cnc12 [P-0146, (S)-4-(6-(3,5-dimethylisoxazol-4-yl)-1-(1-(pyridin-2-yl)ethyl)-1H-pyrrolo[3,2-b]pyridin-3-yl)-3,5-dimethoxybenzoic acid] | 8 to 1000
CCOc1cc(C(=O)O)cc(OCC)c1-n1cc(C(O)(C2CC2)C2CC2)c2ncc(-c3c(C)noc3C)cc21 [P-0165, 4-(3-(dicyclopropyl(hydroxy)methyl)-6-(3,5-dimethylisoxazol-4-yl)-1H-pyrrolo[3,2-b]pyridin-1-yl)-3,5-diethoxybenzoic acid] | 8 to 1000
COc1cc(C(=O)O)cc(OCC2CC2)c1-c1cn([C@@H](C)c2ccccn2)c2ncc(-c3c(C)noc3C)cc12 [P-0152, (S)-3-(cyclopropylmethoxy)-4-(5-(3,5-dimethylisoxazol-4-yl)-1-(1-(pyridin-2-yl)ethyl)-1H-pyrrolo[2,3-b]pyridin-3-yl)-5-methoxybenzoic acid] | 8 to 1000
C#Cc1ccccc1-c1cn(C(C)(c2ccccn2)c2ccccn2)c2cc(-c3c(C)noc3C)cnc12 [P-0167, 4-(1-(1,1-di(pyridin-2-yl)ethyl)-3-(2-ethynylphenyl)-1H-pyrrolo[3,2-b]pyridin-6-yl)-3,5-dimethylisoxazole] | 0.0001 to 1
Cc1noc(C)c1-c1cnc2c(CC3CCC3)cn(-c3ccc(C(=O)O)c4ccoc34)c2c1 [P-0110, 7-(3-(cyclobutylmethyl)-6-(3,5-dimethylisoxazol-4-yl)-1H-pyrrolo[3,2-b]pyridin-1-yl)benzofuran-4-carboxylic acid] | 1 to 8
Cc1noc(C)c1-c1cnc2c(-c3ccccc3C(=O)O)cn(C(C)c3ccccc3)c2c1 (centres unmarked) [P-0120, 2-(6-(3,5-dimethylisoxazol-4-yl)-1-(1-phenylethyl)-1H-pyrrolo[3,2-b]pyridin-3-yl)benzoic acid] | 1 to 8
Cc1noc(C)c1-c1cnc2c(c1)c(-c1ccc(C(=O)O)cc1)cn2C(c1ccccn1)c1ccccn1 [P-0012, 4-(1-(di(pyridin-2-yl)methyl)-5-(3,5-dimethylisoxazol-4-yl)-1H-pyrrolo[2,3-b]pyridin-3-yl)benzoic acid] | 8 to 1000
Cc1noc(C)c1-c1cnc2c(c1)c(-c1ccc(C(=O)O)cc1OCC1CC1)cn2[C@@H](C)c1ccccn1 [P-0138, (S)-3-(cyclopropylmethoxy)-4-(5-(3,5-dimethylisoxazol-4-yl)-1-(1-(pyridin-2-yl)ethyl)-1H-pyrrolo[2,3-b]pyridin-3-yl)benzoic acid] | 8 to 1000
Cc1noc(C)c1-c1cnc2c(-c3ccccc3)cn(-c3c(Cl)cc(C(=O)O)cc3Cl)c2c1 [P-0150, 3,5-dichloro-4-(6-(3,5-dimethylisoxazol-4-yl)-3-phenyl-1H-pyrrolo[3,2-b]pyridin-1-yl)benzoic acid] | 1 to 8
COc1cc(C(=O)O)cc(OCC(F)(F)F)c1-c1cn([C@@H](C)c2ccccn2)c2ncc(-c3c(C)noc3C)cc12 [P-0153, (S)-4-(5-(3,5-dimethylisoxazol-4-yl)-1-(1-(pyridin-2-yl)ethyl)-1H-pyrrolo[2,3-b]pyridin-3-yl)-3-methoxy-5-(2,2,2-trifluoroethoxy)benzoic acid] | 8 to 1000
Cc1noc(C)c1-c1cnc2c(c1)c(-c1ccc(C(=O)O)cc1F)cn2[C@@H](C)c1ccccn1 [P-0097, (S)-4-(5-(3,5-dimethylisoxazol-4-yl)-1-(1-(pyridin-2-yl)ethyl)-1H-pyrrolo[2,3-b]pyridin-3-yl)-3-fluorobenzoic acid] | 8 to 1000
Cc1noc(C)c1-c1cnc2c(C(=O)c3cccc(OCc4ccccc4)c3)cn(-c3c(Cl)cc(C(=O)O)cc3Cl)c2c1 [P-0133, 4-(3-(3-(benzyloxy)benzoyl)-6-(3,5-dimethylisoxazol-4-yl)-1H-pyrrolo[3,2-b]pyridin-1-yl)-3,5-dichlorobenzoic acid] | 1 to 8
Cc1noc(C)c1-c1cnc2c(c1)c(-c1ccc(C(=O)O)cc1OCc1ccccc1)cn2[C@@H](C)c1ccccn1 [P-0139, (S)-3-(benzyloxy)-4-(5-(3,5-dimethylisoxazol-4-yl)-1-(1-(pyridin-2-yl)ethyl)-1H-pyrrolo[2,3-b]pyridin-3-yl)benzoic acid] | 8 to 1000
Cc1noc(C)c1-c1cnc2c(c1)c(-c1ccc(C(=O)O)cc1OC(F)(F)F)cn2CC1CC(F)(F)C1 [P-0157, 4-(1-((3,3-difluorocyclobutyl)methyl)-5-(3,5-dimethylisoxazol-4-yl)-1H-pyrrolo[2,3-b]pyridin-3-yl)-3-(trifluoromethoxy)benzoic acid] | 0.0001 to 1
Cc1noc(C)c1-c1cnc2c(-c3cc(C(=O)O)ccc3C#N)cn(C(C)(c3ccccn3)c3ccccn3)c2c1 [P-0166, 4-cyano-3-(1-(1,1-di(pyridin-2-yl)ethyl)-6-(3,5-dimethylisoxazol-4-yl)-1H-pyrrolo[3,2-b]pyridin-3-yl)benzoic acid] | 0.0001 to 1
Cc1noc(C)c1-c1cc2c(cn1)c(CC1CCC1)cn2-c1c(Cl)cc(C(=O)O)cc1Cl [P-0149, 3,5-dichloro-4-(3-(cyclobutylmethyl)-6-(3,5-dimethylisoxazol-4-yl)-1H-pyrrolo[3,2-c]pyridin-1-yl)benzoic acid] | 8 to 1000
Cc1noc(C)c1-c1cnc2c(Cc3cccc(OC(F)F)c3)cn(-c3ccnc(C(=O)O)c3)c2c1 [P-0100, 4-(3-(3-(difluoromethoxy)benzyl)-6-(3,5-dimethylisoxazol-4-yl)-1H-pyrrolo[3,2-b]pyridin-1-yl)picolinic acid] | 1 to 8
Cc1noc(C)c1-c1cnc2c(c1)c(-c1ccc(C(=O)O)cc1OC(F)(F)F)cn2-c1ccccn1 [P-0158, 4-(5-(3,5-dimethylisoxazol-4-yl)-1-(pyridin-2-yl)-1H-pyrrolo[2,3-b]pyridin-3-yl)-3-(trifluoromethoxy)benzoic acid] | 0.0001 to 1
COc1cc(C(=O)O)cc(OC)c1-c1cn(C(C)c2ccccc2)c2cc(-c3c(C)noc3C)cnc12 (centres unmarked) [P-0119, 4-(6-(3,5-dimethylisoxazol-4-yl)-1-(1-phenylethyl)-1H-pyrrolo[3,2-b]pyridin-3-yl)-3,5-dimethoxybenzoic acid] | 1 to 8
Cc1noc(C)c1-c1cnc2c(Cc3cccc(Cl)c3)cn(-c3c(Cl)cc(C(=O)O)cc3Cl)c2c1 [P-0128, 3,5-dichloro-4-(3-(3-chlorobenzyl)-6-(3,5-dimethylisoxazol-4-yl)-1H-pyrrolo[3,2-b]pyridin-1-yl)benzoic acid] | 1 to 8
CCCOc1cc(C(=O)O)ccc1-c1cn([C@@H](C)c2ccccn2)c2ncc(-c3c(C)noc3C)cc12 [P-0113, (S)-4-(5-(3,5-dimethylisoxazol-4-yl)-1-(1-(pyridin-2-yl)ethyl)-1H-pyrrolo[2,3-b]pyridin-3-yl)-3-propoxybenzoic acid] | 8 to 1000
Cc1noc(C)c1-c1cnc2c(c1)c(-c1ccc(C(=O)O)cc1)cn2C(c1ccccn1)C1CCC1 (centres unmarked) [P-0008, 4-(1-(cyclobutyl(pyridin-2-yl)methyl)-5-(3,5-dimethylisoxazol-4-yl)-1H-pyrrolo[2,3-b]pyridin-3-yl)benzoic acid] | 8 to 1000
